Here are results for two molecules from US4273923A, “Process for preparing aminoglycoside derivatives” (Shionogi & Co., Ltd., priority 1979, dated 1981).

The test system of the assay is Staphylococcus epidermidis TB-172. In words: MIC by agar dilution method. The class given is cell-based. The conditions noted are these: TB172, tobramycin resistant strain, innoculum size 10^4 CFU/ml, 37° C., 18 to 20 hours, read-out: Minimum Inhibitory Concentration (MIC). A general note: Agar dilution tests growth on a series of plates holding different concentrations.

Converted amounts (≈) assume the structure as drawn.

Turning to `NCC1=CC[C@@H](N)[C@@H](O[C@H]2[C@H](O)[C@@H](O[C@H]3O[C@H](CO)[C@@H](O)[C@H](N)[C@H]3O)[C@H](N)C[C@@H]2N)O1` [[A], O-[3-amino-3-deoxy-α-D-glucopyranosyl-(1→6)]-O-[2,6-diamino-2,3,4,6-tetradeoxy-α-D-glycero-hex-4-enopyranosyl-(1→4)]-2-deoxy-D-streptamine], the MIC was determined as 0.1 µg/mL (≈ 0.222 µM).
The same measure for `NC[C@H]1O[C@H](O[C@H]2[C@H](O)[C@@H](O[C@H]3O[C@H](CO)[C@@H](O)[C@H](N)[C@H]3O)[C@H](N)C[C@@H]2N)[C@H](N)C[C@@H]1O` [TOB, tobramycin]: 25 µg/mL (≈ 53.5 µM).
